Assay results as given in patent publication US4997828A, “Method of weight control by low level administration of cobalt protoporphyrin or cobalt mesoporphyrin” (The Rockefeller University, priority 1989, dated 1991).
Entries after “also recorded” stand apart in the source; their conditions may differ.

Legend:
endocrine system [1] = details: cited from earlier work; for Endocrine suppression, weight control and P/F ratio: levels of administration described in the copending application; for Production of gonadal hormones / Production of thyroid hormones: parenteral administration, copending application
endocrine system [2] = experiment: Endocrine suppression activity in animals, general statements; type: in vivo
[3] = Weight control and P/F ratio of animals, general statements; type: in vivo; details: for Improved P/F ratio, lowest dosage / Weight control activity, lowest dosage: decreasing dosage
Aniline hydroxylase = experiment: Hepatic aniline hydroxylase activity of treated rats (Example 1); type: in vivo, Sprague-Dawley rat; details: Day 71; 10 serial doses of CoPP 1 μmol/kg b.w. s.c.; n = 6; control 59 ± 3.48
Method: (§1) Adult male Sprague-Dawley rats (≈250 g) were injected subcutaneously with CoPP 1 μmol/kg b.w. (12 rats) or vehicle (12 rats) on day 0. Thereafter, injections (Vertical arrows in FIG. 1) were repeated weekly until 10 doses had been given. Animals were allowed Purina rat chow and water ad libitum and animal weights were recorded thrice weekly; means are presented in FIG. 1 ( is control and treated animals). On day 71, 6 control rats and 6 CoPP-treated rats were sacrificed, blood collected for hormone determinations and hepatic mitochondrial and microsomal fractions prepared for biochemical assays. These procedures were repeated at day 124 for the remainder of the animals.
(§2) The effects of 10 serial doses of CoPP 1 μmol/kg b.w. on weight,
(§3) *n = 12; for all other parameters, n = 6 animals per treatment.

[4] = test system: δ-Aminolevulinic acid synthase; experiment: Hepatic δ-aminolevulinic acid synthase activity of treated rats (Example 1); type: in vivo, Sprague-Dawley rat; details: Day 71; 10 serial doses of CoPP 1 μmol/kg b.w. s.c.; n = 6; control 0.29 ± 0.02
Method: as §1, §2, §3

Heme oxygenase = experiment: Hepatic heme oxygenase activity of treated rats (Example 1); type: in vivo, Sprague-Dawley rat; details: Day 71; 10 serial doses of CoPP 1 μmol/kg b.w. s.c.; n = 6; control 1.85 ± 0.15
Method: as §1, §2, §3

testosterone [5] = experiment: Serum testosterone of male Beagle dogs after weekly intramuscular injections (Example 2); type: in vivo, Beagle dog; details: for Testosterone (serum): n = 3
Method: (§4) Adult male Beagle dogs (≈1 year) were housed in single runs with free access to Purina dog chow and water. On day 0, 3 animals were injected intramuscularly in the upper posterolateral aspect of the hindlimb with CoPP 2.5 μmol/kg b.w., and 3 animals with control vehicle. Injections (Vertical arrows in FIG. 2) were repeated weekly, in alternating hindlimbs, until a: total of 9 doses had been given. Animal weights were recorded thrice weekly and means are presented in FIG. 2 ( is control and is treated animals).
The effects of 9 serial doses of CoPP 2.5 μmol/kg b.w. on serum
testosterone concentrations in male Beagle dogs.

[6] = Body weight of adult male rats after intraventricular injection, dose response (Example 3); type: in vivo, rat
Method: Adult male rats were anesthetized during stereotaxic placement of chronic indwelling catheters into the third ventricle of the brain. After 3-4 days post-operative recovery, animals were injected intraventricularly (i/vt) with small volumes (<10μl) of vehicle or CoPP 0.1, 0.2 (o) or 0.4 μmol/kg b.w.

[7] = Body weight of adult male Beagle dogs after weekly intramuscular injections (Example 2); type: in vivo, Beagle dog
Method: as §4

[8] = Prolonged body weight loss after single intraventricular treatment (Example 5); type: in vivo, rat; details: single i/vt CoPP 0.2 or 0.4 μmol/kg b.w.; n=4; FIG. 5
Description: The prolonged loss of body weight following single i/vt treatments with CoPP 0.2 or 0.4 μmol/kg b.w. are contrasted with that of vehicle-treated rats in FIG. 5 (n=4).

[9] = test system: Ethylmorphine demethylase; experiment: Hepatic ethylmorphine demethylase activity of treated rats (Example 1); type: in vivo, Sprague-Dawley rat; details: Day 71; 10 serial doses of CoPP 1 μmol/kg b.w. s.c.; n = 6; control 0.43 ± 0.05
Method: as §1, §2, §3

LH = LH concentration in blood of subcutaneously treated rats (Example 1); type: in vivo, Sprague-Dawley rat; details: Day 124; 10 serial doses of CoPP 1 μmol/kg b.w. s.c.; n = 6; control 21.1 ± 3.29
Method: as §1, §2, §3

Testosterone [10] = experiment: Testosterone concentration in blood of subcutaneously treated rats (Example 1); type: in vivo, Sprague-Dawley rat; details: 10 serial doses of CoPP 1 μmol/kg b.w. s.c., n = 6
Method: as §1, §2, §3

[11] = test system: Aryl hydrocarbon hydroxylase; experiment: Hepatic aryl hydrocarbon hydroxylase activity of treated rats (Example 1); type: in vivo, Sprague-Dawley rat; details: Day 71; 10 serial doses of CoPP 1 μmol/kg b.w. s.c.; n = 6; control 275 ± 24
Method: as §1, §2, §3

[12] = Body weight and naso-anal length of adult male rats after weekly subcutaneous injections (Example 1); type: in vivo, Sprague-Dawley rat
Method: as §1, §2, §3
**As calculated by Student's Ttest. The only significant changes are in […]

hormone concentrations = experiment: Hormone concentrations of treated rats, overall statement (Example 1); type: in vivo, Sprague-Dawley rat
Method: as §1

[13] = Body weight of adult male rats treated intraventricularly (Example 4); type: in vivo, rat; details: i/vt CoPP 0.4 μmol/kg b.w.; 5 animals; FIG. 4
Description: FIG. 4 depicts the means ±SEM of the body weights of 5 adult male rats treated i/vt with vehicle and 5 animals with CoPP 0.4 μmol/kg b.w. ( , lower panel).

[14] = test system: heme pathway and cytochrome P-450-dependent enzyme activities; experiment: Heme pathway and cytochrome P-450-dependent enzyme activities of treated rats, overall statement (Example 1); type: in vivo, Sprague-Dawley rat; details: CoPP 1 μmol/kg b.w. s.c. weekly, 10 doses
Method: as §1

Insulin = Insulin concentration in blood of subcutaneously treated rats (Example 1); type: in vivo, Sprague-Dawley rat; details: Day 124; 10 serial doses of CoPP 1 μmol/kg b.w. s.c.; n = 6; control 156 ± 47.6
Method: as §1, §2, §3

[15] = test system: 7-Ethoxycoumarin de-ethylase; experiment: Hepatic 7-ethoxycoumarin de-ethylase activity of treated rats (Example 1); type: in vivo, Sprague-Dawley rat; details: Day 71; 10 serial doses of CoPP 1 μmol/kg b.w. s.c.; n = 6; control 0.41 ± 0.04
Method: as §1, §2, §3

testosterone [16] = experiment: Testosterone concentration of adult male rats treated intraventricularly (Example 4); type: in vivo, rat; details: i/vt CoPP 0.4 μmol/kg b.w.; 5 animals; FIG. 4
Cytochrome P-450 [17] = experiment: Hepatic cytochrome P-450 content of treated rats (Example 1); type: in vivo, Sprague-Dawley rat; details: Day 71; 10 serial doses of CoPP 1 μmol/kg b.w. s.c.; n = 6; control 1.06 ± 0.23
Method: as §1, §2, §3

cytochrome P-450 [18] = details: administration to animals; lowest level 25 μm/kg body weight; cited from earlier work
[19] = at about 10 μm/kg b.w., say 9.8 μm/kg b.w.
[20] = preferred range 0.1 to 0.3 μm/kg b.w.
[21] = similar administration to FIGS. 1-5
[22] = CoPP 1 μmol/kg b.w. s.c. weekly, 10 doses

For CCC1=C(C)c2cc3[n-]c(cc4[n-]c(cc5nc(cc1n2)C(C)=C5CC)c(C)c4CCC(=O)[O-])c(CCC(=O)[O-])c3C.[Co+2].[H+].[H+] [CoMP, cobalt mesoporphyrin], the “Endocrine suppression, weight control and P/F ratio” value (endocrine system [1]) is given as “endocrine suppression, weight control and improved P/F ratio all take place simultaneously”, the “Production of gonadal hormones” value (endocrine system [1]) is given as “limit the production of gonadal hormones” and the “Production of thyroid hormones” value (endocrine system [1]) is given as “suppress the production of thyroid hormones”. For the same molecule, the Endocrine suppression activity (endocrine system [2]; at 4 μm/kg b.w.) was “effectively disappeared”, the Endocrine suppression activity (endocrine system [2]; [19]) was “negligible” and the Endocrine suppression activity (endocrine system [2]; dependence on dosage) was “declines as the dosage is decreased”. For the same molecule, the Endocrine suppression activity (endocrine system [2]; [20]) was “substantially no endocrine suppression activity”, the “Improved P/F ratio, lowest dosage” value [3] was “continues even down to as low as 0.1 μm/kg b.w” and the “Weight control activity, lowest dosage” value [3] was “continues even down to as low as 0.1 μm/kg b.w”. The P/F ratio [3, 21] was “improved P/F ratios” and the “Results relative to those illustrated in the figures for CoPP” value [3, 21] was “Comparable results”.
For C=CC1=C(C)c2cc3[n-]c(cc4nc(cc5[n-]c(cc1n2)c(C)c5CCC(=O)[O-])C(CCC(=O)[O-])=C4C)c(C)c3C=C.[Co+2].[H+].[H+] [CoPP, cobalt protoporphyrin], the “Endocrine suppression, weight control and P/F ratio” value (endocrine system [1]) is listed as “endocrine suppression, weight control and improved P/F ratio all take place simultaneously”, the “Production of gonadal hormones” value (endocrine system [1]) is listed as “limit the production of gonadal hormones” and the “Production of thyroid hormones” value (endocrine system [1]) is listed as “suppress the production of thyroid hormones”. The Aniline hydroxylase (Aniline hydroxylase) was 74 ± 4.62 nmol p-aminop./mg prot/hr, the δ-Aminolevulinic acid synthase [4] was 0.30 ± 0.01 μmol ALA/mg prot/90' and the Endocrine suppression activity (endocrine system [2]; at 4 μm/kg b.w.) was “effectively disappeared”. For the same molecule, the Endocrine suppression activity (endocrine system [2]; [19]) was “negligible”, the Endocrine suppression activity (endocrine system [2]; dependence on dosage) was “declines as the dosage is decreased” and the Endocrine suppression activity (endocrine system [2]; [20]) was “substantially no endocrine suppression activity”. The Heme oxygenase (Heme oxygenase) was 2.08 ± 0.21 nmol bilirubin/mg prot/hr, the “Testosterone (serum)” value (testosterone [5]; Day 0 (before start of the experiment), CoPP 2.5 μmol/kg b.w. group, control 1.82 ± 0.65) was 2.03 ± 0.57 ng/mL and the “Testosterone (serum)” value (testosterone [5]; Day 62, 9 serial doses of CoPP 2.5 μmol/kg b.w. i.m. weekly, control 1.73 ± 0.52) was 2.15 ± 1.52 ng/mL. The “Testosterone (serum)” value (testosterone [5]; Day 112, 9 serial doses of CoPP 2.5 μmol/kg b.w. i.m. weekly, control 1.67 ± 0.03) was 1.92 ± 0.83 ng/mL, the “Testosterone level change (FIG. 2 with Table II)” value (testosterone [5]; adult male dogs, Example 2) was “no decrease in testosterone levels” and the “Effect on testosterone concentrations” value (testosterone [5]; days 62 and 112, CoPP 2.5 μmol/kg b.w. i.m.) was “no effect”. The “Weight loss (FIG. 3)” value ([6]; adult male rats, intraventricular administration, Example 3) was “weight loss achieved”, the “Effects on body weight, dose dependence” value ([6]; i/vt CoPP 0.1, 0.2 or 0.4 μmol/kg b.w., 4-6 animals per group) was “dose responsive” and the “i/vt dosage relative to s/c dosage required to elicit the same changes (fold less)” value ([6]; intraventricular versus s/c administration) was 50-100 fold less. For the same molecule, the “Body weight change (FIG. 2)” value ([7]; adult male dogs, Example 2) was “decrease in body weight”, the Mean weights ([7]; after first 3 weeks, CoPP 2.5 μmol/kg b.w. i.m. weekly) was “progressively decreased thereafter to a nadir at day 74” and the “Recovery of body weight” value ([7]; by day 84, CoPP 2.5 μmol/kg b.w. i.m. weekly, 9 doses) was “returned to their pre-treatment weights”. The Mean weights ([7]; first 3 weeks of treatment, CoPP 2.5 μmol/kg b.w. i.m. weekly) was “unchanged”, the “Loss of body weight” value ([7]; nadir at day 74, CoPP 2.5 μmol/kg b.w. i.m. weekly, 9 doses) was “approximately 25 % of their body weight” and the “Loss of body weight after single i/vt treatment” value [8] was “prolonged weight loss; also recorded: prompt decrease in weight”. The “Weight differential between treated and untreated animals” value [8] was “maintained for the duration of the treatment”, the Ethylmorphine demethylase [9] was 0.49 ± 0.04 μmol form/mg prot/hr and the LH (LH) was 24.2 ± 6.14 ng/mL. The Testosterone (Testosterone [10]; Day 71, control 1.96 ± 0.29) was 1.72 ± 0.23 ng/mL, the Testosterone (Testosterone [10]; Day 124, control 2.64 ± 0.25) was 3.59 ± 0.90 ng/mL and the Aryl hydrocarbon hydroxylase [11] was 291 ± 28 pmol 80HBP/mg prot/hr. The “Difference in weights of control and CoPP-treated rats” value [12, 22] was “highly significant”, the Body weight ([12]; Day 71, 10 serial doses of CoPP 1 μmol/kg b.w. s.c. weekly, n = 12, control 568 ± 16) was 442 ± 5 g and the “Body weight” value ([12]; Day 124, 10 serial doses of CoPP 1 μmol/kg b.w. s.c., n = 6, control 633 ± 39) was 541 ± 12 g. For the same molecule, the “Body weight change (FIG. 1)” value ([12]; adult male rats, Example 1) was “decrease in body weight”, the “Difference in hormone concentrations vs control” value (hormone concentrations; [22]) was “no significant differences” and the “Hormone concentration change (FIG. 1 with Table I)” value (hormone concentrations; adult male rats, Example 1) was “without decrease in hormone concentration”. The “Improved P/F ratio, lowest dosage” value [3] was “continues even down to as low as 0.1 μm/kg b.w”, the “Weight control activity, lowest dosage” value [3] was “continues even down to as low as 0.1 μm/kg b.w” and the P/F ratio [3, 21] was “improved P/F ratios”. The Weight loss [13] was “typical weight loss”, the “Difference in heme pathway and cytochrome P-450-dependent enzyme activities vs control” value [14] was “no significant differences” and the Insulin (Insulin) was 191 ± 43.6 μU/ml. For the same molecule, the 7-Ethoxycoumarin de-ethylase [15] was 0.53 ± 0.03 μmol/mg prot/hr, the “Testosterone concentrations vs vehicle-treated rats” value (testosterone [16]) was “without significant changes in testosterone concentration; also recorded: not significantly different” and the “Cytochrome P-450” value (Cytochrome P-450 [17]) was 0.70 ± 0.12 nmol/mg protein. For the same molecule, the “Cytochrome P-450 content of the liver” value (cytochrome P-450 [18]) was “deplete the cytochrome P-450 content of the liver”.
